Experimental data from patent publication US11649430B2 (priority 2018, dated 2023).
Entries after “also recorded” stand apart in the source; their conditions may differ.

What was measured:
[1] = Antioxidant Assay (OxiSelect Total Antioxidant Capacity Assay Kit); assay type: biochemical; conditions: 0-1 mM; compared to uric acid; absorbance 490 nm (Supporting Figure S9)
Experimental: Antioxidant Assay: ROS quenching potential of the imizoquins was analyzed using the OxiSelect™ Total Antioxidant Capacity Assay Kit (Cell Biolabs, Inc., San Diego, Calif.) following the manufacturer's instructions. Briefly, 20 μL of diluted uric acid standards (0-1 mM) and imizoquins (0-1 mM) were combined with 180 μL of 1× reaction buffer/well in a Costar® 96 well plate. After mixing thoroughly, an initial absorbance was obtained at 490 nm using a BioTek EPOCH 2 microplate reader with Gen5 acquisition software. Then 50 μL of the 1× copper ion reagent was added into each well and the plate was incubated for 5 minutes on an orbital shaker. To terminate the reaction, 50 μL of 1× stop solution was added and the final absorbance was measured again at 490 nm.

[2] = test system: A. flavus; assay type: cell-based, Aspergillus flavus; conditions: for germination rate: 0.1 mM, 0.2 mM, 0.4 mM
[3] = test system: A. flavus spores
[4] = test system: A. fumigatus; assay: Germination assay with purified imizoquins, A. fumigatus; assay type: cell-based, Aspergillus fumigatus
Experimental: (§1) Germination Assay: Each strain was grown in triplicate in 2 mL of liquid GMM inoculated with 1×10^5 spores mL^−1 in a well of a sterile Costar® 12-well plate (Corning) and incubated at 30° C. in OKO-Lab microscopic enclosure equipped with a Nikon Eclipse Ti inverted microscope. Germinated spores were observed using a Nikon Plan Fluor 20xPh1 DLL objective and phase-contrast microscope. A spore was considered germinated when the length of the spore protrusion (emerging hyphal tip) exceeded the spore's diameter^15,33. Images were captured hourly using the Nikon NIS Elements AR software package (v. 4.13), and the germination rate was determined by counting germlings per hundred spores. The experiment was repeated three times.
(§2) Germination Assay with Purified Imizoquins. Compounds 1-2 were assessed for their effect on germination of different fungal strains. Each metabolite was dissolved in methanol at a starting concentration of 10 mg mL^−1 and stored at −80° C. Sterile Costar® 96 well plates containing 100 μL of GMM supplemented with various concentrations of purified 1-2 (0.1 mM, 0.2 mM, 0.4 mM, 0.8 mM and 1.2 mM) were inoculated at 1×10^5 spores/well. Spores treated with equivalent volumes of the carrier (methanol) served as negative controls for each experiment. The germination rate (%) was measured as above with each treatment assayed in triplicate.

[5] = test system: A. oryzae; assay: Germination assay with purified imizoquins, A. oryzae; assay type: cell-based, Aspergillus oryzae
Experimental: as §1, §2

[6] = test system: A. flavus; assay: Germination ROS assay (H2O2 plus imizoquin A); assay type: cell-based, Aspergillus flavus; conditions: 0.7 mM H2O2, 0.1, 0.2, 0.4 mM compound
[7] = test system: R. solanacearum; assay type: cell-based, Ralstonia solanacearum; conditions: WT (GMI1000) strain; 0.4 mM; 24 hours
[8] = test system: A. nidulans; assay: Germination assay with purified imizoquins, A. nidulans; assay type: cell-based, Aspergillus nidulans
Experimental: as §1, §2

[9] = test system: Penicillium expansum; assay: Germination assay with purified imizoquins, Penicillium expansum; assay type: cell-based
Experimental: as §1, §2

Structure (SMILES)	antioxidant activity (ROS quenching potential) [1]	germination [2]	germination rate in the presence of H2O2 ([6]; WT strain)	germination rate in the presence of H2O2 ([6]; ΔimqK strain)	R. solanacearum growth (OD) [7]	germination rate [2]	also measured
COc1c(O)cc2c(c1O)CN(C(=O)[C@@H](N)Cc1c[nH]c3ccccc13)[C@H](C(=O)N[C@@H](CC(C)CO)C(=O)O)C2 (stereo partly shown) [TMC-2B, reference compound]	showed antioxidant properties	similarly accelerated germination					
COc1c(O)cc2c(c1O)CN(C(=O)[C@@H](N)Cc1c[nH]c3ccccc13)[C@H](C(=O)N[C@@H](CC(CO)CO)C(=O)O)C2 [TMC-2A, reference compound]	showed antioxidant properties	similarly accelerated germination					
OO [H2O2, hydrogen peroxide]							spore survival [3]: 50%
COC1=C(O)C(=O)C2=C(C1=O)[C@H]1N[C@@H](Cc3c[nH]c4ccccc34)C(=O)N1C(C(=O)N[C@@H](CC(C)CO)C(=O)O)C2 (stereo partly shown) [Imizoquin A, imizoquin A]	significant antioxidant activities		counteracted the germination inhibitory activity of H2O2	counteracted the germination inhibitory activity of H2O2	decreases R. solanacearum growth modestly	restores germination in the ΔimqK mutant in a dose-dependent manner; also recorded: increased germination of both ΔimqK and WT to above that of untreated OE::imqK	germination rate [4]: increases the germination rate; concentration up to which the germination effect is dose-dependent ([4]; A. fumigatus): about 0.4 mM; concentration up to which the germination effect is dose-dependent ([5]; A. oryzae): about 0.4 mM; germination rate ([5]; A. oryzae (Supporting Figure S8)): increases the germination rate; germination rate in the presence of H2O2 ([6]; WT strain, listed as imizoquin A): protected spores from the germination inhibitory effects of H2O2; germination rate in the presence of H2O2 ([6]; ΔimqK strain, listed as imizoquin A): protected spores from the germination inhibitory effects of H2O2; germination rate [8]: increases the germination rate; concentration up to which the germination effect is dose-dependent ([8]; A. nidulans): about 0.4 mM; concentration up to which the germination effect is dose-dependent [9]: about 0.4 mM; germination rate [9]: increased the germination rate
COC1=C(O)C(=O)C2=C(C1=O)[C@H]1N[C@@H](Cc3c[nH]c4ccccc34)C(=O)N1C(C(=O)N[C@@H](CC(CO)CO)C(=O)O)C2 (stereo partly shown) [Imizoquin B, imizoquin B]	significant antioxidant activities		protected spores from the germination inhibitory effects of H2O2	protected spores from the germination inhibitory effects of H2O2	decreases R. solanacearum growth modestly	restores germination in the ΔimqK mutant in a dose-dependent manner; also recorded: increased germination of both ΔimqK and WT to above that of untreated OE::imqK	
